Results as given in US20260345723A1, “Treatments for Opioid-Induced Respiratory Depression” (priority 2023, published 2026).

Tests used:
CXCR4 [1] = conditions: pretreatment, hypoxic neonatal rats; cited from earlier work
tolerance to morphine = conditions: in vivo; cited from earlier work
chemokine release = conditions: cited from earlier work
CCR2 [2] = conditions: selective CCR2 receptor antagonists, mice; cited from earlier work
[3] = system: morphine-induced respiratory depression; conditions: rat, in vivo
CCR2 [4] = conditions: rat, in vivo
CXCR4 [5] = conditions: rat, in vivo
CCR5 [6] = conditions: rat, in vivo
[7] = system: mu-opioid receptor (OPRM1); conditions: rat, in vivo
GFAP mRNA = conditions: rat, in vivo
IBA1 mRNA = conditions: rat, in vivo
CCR2 [8] = conditions: pretreatment with CCR2 antagonist; cited from earlier work
CCR5 [9] = conditions: CCR5 antagonist, rats; cited from earlier work
CCR5 [10] = conditions: cited from earlier work
CXCR4 [11] = conditions: cited from earlier work

Compound: dexamethasone
- CXCR4 receptors (CXCR4 [1]): downregulates CXCR4 receptors
- neuroprotection (CXCR4 [1]): induces neuroprotection

Compound: CN(C)c1ccc(O)c2c1C[C@H]1C[C@H]3[C@H](N(C)C)C(O)=C(C(N)=O)C(=O)[C@@]3(O)C(O)=C1C2=O [minocycline]
- tolerance to morphine (tolerance to morphine): attenuates tolerance to morphine
- chemokine release (chemokine release): inhibits chemokine release

Compound: COc1ccc(C2(O)CCC(N3CC[C@@H](NC(=O)CNC(=O)c4cccc(C(F)(F)F)c4)C3)CC2)cn1 (stereo partly shown) [INCB 3284]
- methamphetamine-induced place conditioning (CCR2 [2]): reduce

Compound: CN1CC[C@]23c4c5ccc(O)c4O[C@H]2[C@@H](O)C=C[C@H]3[C@H]1C5 [morphine, reference compound]
- SpO2 (oxygen saturation) [3]: under 90%
- cumulative SpO2 [3]: significantly reduced SpO2
- cumulative respiratory rate [3]: significantly increased respiratory rate
- CCR2 protein levels, NAC (CCR2 [4]): significantly reduced CCR2 protein levels
- CCR2 protein levels, PFC (CCR2 [4]): significantly enhanced CCR2 protein levels
- CCR2 protein levels, VTA (CCR2 [4]): significantly enhanced CCR2 protein levels
- CXCR4 protein levels, VTA (CXCR4 [5]): significantly enhanced CXCR4 protein levels
- CCR5 protein levels, NAC (CCR5 [6]): significantly reduced CCR5 protein levels
- CCR5 protein levels, VTA (CCR5 [6]): did not significantly change
- OPRM1 protein levels, VTA [7]: significantly increased OPRM1 protein levels
- GFAP mRNA levels, NAC (GFAP mRNA): significantly enhanced
- GFAP mRNA levels, VTA and PFC (GFAP mRNA): no significant changes were detected
- microglial gene expression, VTA, NAC, PFC (IBA1 mRNA): not altered

Compound: O=C1Nc2ccccc2C2(CCN(CCc3ccc(C(F)(F)F)cc3)CC2)O1 [RS-102895]
- inflammation caused by CCL2 (CCR2 [8]): inhibited

Compound: maraviroc
- locomotor-activating effects of cocaine (CCR5 [9]): reduce
- rewarding efficacy of cocaine (CCR5 [9]): reduce
- HIV entry into cells that express CCR5 (CCR5 [10]): inhibits the entry

Compound: c1cc(CN2CCCNCCNCCCNCC2)ccc1CN1CCCNCCNCCCNCC1 [AMD3100]
- CXCR4 antagonism (CXCR4 [11]): antagonist of CXCR4
- mobilization of hematopoietic stem cells (CXCR4 [11]): mobilize hematopoietic stem cells

Compound: Cc1ccc2c(c1)C1(CCN(CCc3nc(-c4ccccc4)oc3C)CC1)OC(=O)N2 [RS504393]
- methamphetamine-induced place conditioning (CCR2 [2]): reduce
